Data set [1] is described as follows: Total body clearance in human. As to conditions: in vivo.
Another data set in a line: clinical. Conditions: human, in vivo.

With `CCN(CC)C(=O)/C(C#N)=C/c1cc(O)c(O)c([N+](=O)[O-])c1` [ENTACAPONE], the clearance (as a rule, the rate of elimination divided by the concentration) in data set [1] was determined as 11.7 mL/min/kg. For the same compound, the CL renal in “clinical” amounted to 6.4 mL/min/kg.
The compound `Cc1cc(NC(=O)C2=C(O)c3ccccc3S(=O)(=O)N2C)no1` [ISOXICAM] returned a clearance in data set [1] of 0.07 mL/min/kg.
In data set [1], `CCCC1O[C@@H]2C[C@H]3[C@@H]4CCC5=CC(=O)C=C[C@]5(C)[C@H]4[C@@H](O)C[C@]3(C)[C@]2(C(=O)CO)O1` (stereo partly specified) [BUDESONIDE] yielded a clearance of 20 mL/min/kg. Besides, the CL renal in the data set “clinical” was 1 mL/min/kg.
As for `O=C(NCCNCC(O)COc1ccc(O)cc1)N1CCOCC1` (stereo unspecified) [XAMOTEROL], the clearance in data set [1] came out at 3 mL/min/kg. The compound further registered a CL renal in the data set “clinical” of 1.86 mL/min/kg.
Taken in the same sequence, the figures for `CC1COc2c(N3CCN(C)CC3)c(F)cc3c(=O)c(C(=O)O)cn1c23` (stereo unspecified) [OFLOXACIN] were 3.5 mL/min/kg and 2.7 mL/min/kg.
In the case of `CC[C@@H](CO)NCCN[C@@H](CC)CO` [ETHAMBUTOL], in data set [1], the clearance worked out at 10 mL/min/kg. Further, in “clinical”, the CL renal stood at 7.3 mL/min/kg.
Compound `CC1(C)S[C@@H]2[C@H](NC(=O)[C@H](NC(=O)N3CCN(S(C)(=O)=O)C3=O)c3ccccc3)C(=O)N2[C@H]1C(=O)O` [MEZLOCILLIN] gave a clearance in data set [1] of 5.23 mL/min/kg. The same compound returned a CL renal in “clinical” of 2.4 mL/min/kg.
In the same order, the values of `CN1CCCC(n2nc(Cc3ccc(Cl)cc3)c3ccccc3c2=O)CC1` (stereo unspecified) [AZELASTINE] are 9 mL/min/kg and 0.18 mL/min/kg.
Taken in the same sequence, the figures for `COc1ccc([C@]2(C#N)CC[C@@H](C(=O)O)CC2)cc1OC1CCCC1` [CILOMILAST] were 0.5 mL/min/kg and 0.01 mL/min/kg.
In the same order, the values of `CCCCCCCN(CC)CCCC(O)c1ccc(NS(C)(=O)=O)cc1` (stereo unspecified) [IBUTILIDE] are 25 mL/min/kg and 2.5 mL/min/kg.
The compound `COCCCOc1ccnc(C[S+]([O-])c2nc3ccccc3[nH]2)c1C` (stereo unspecified) [RABEPRAZOLE] returned a clearance in data set [1] of 4 mL/min/kg.
In turn, `CC[C@@]1(O)C(=O)OCc2c1cc1n(c2=O)Cc2c-1nc1ccccc1c2N` had a clearance in data set [1] of 6.5 mL/min/kg. Further, the CL renal in “clinical” was determined as 0.56 mL/min/kg.
For the compound `COc1cccc2c1C(=O)c1c(O)c3c(c(O)c1C2=O)C[C@@](O)(C(=O)CO)C[C@@H]3O[C@H]1C[C@H](N)[C@@H](O)[C@H](C)O1` [EPIRUBICIN], in data set [1], the clearance was found to be 20 mL/min/kg. For the same compound, the CL renal in the data set “clinical” is 2.44 mL/min/kg.
The compound `CC1(C)S[C@@H]2[C@H](NC(=O)[C@H](C(=O)O)c3ccsc3)C(=O)N2[C@H]1C(=O)O` [TICARCILLIN] gave a clearance in data set [1] of 2.2 mL/min/kg. The same compound registered a CL renal in the data set “clinical” of 1.9 mL/min/kg.
Turning to `O=P1(N(CCCl)CCCl)NCCCO1` (stereo unspecified) [CYCLOPHOSPHAMIDE ANHYDROUS], the clearance in data set [1] was determined as 1.1 mL/min/kg.
Consider `CC(=O)Nc1ccc(OCC(O)CNC(C)C)cc1` (stereo unspecified) [PRACTOLOL], for which the clearance in data set [1] was 2 mL/min/kg. The same compound had a CL renal in “clinical” of 1.7 mL/min/kg.
In the same order, the values of `O=[N+]([O-])O[C@@H]1CO[C@H]2[C@@H]1OC[C@@H]2O` [ISOSORBIDE MONONITRATE] are 2 mL/min/kg and 0.1 mL/min/kg.
In data set [1], `C=CC[C@@H]1/C=C(\C)C[C@H](C)C[C@H](OC)[C@H]2O[C@@](O)(C(=O)C(=O)N3CCCC[C@H]3C(=O)O[C@H](/C(C)=C/[C@@H]3CC[C@@H](O)[C@H](OC)C3)[C@H](C)[C@@H](O)CC1=O)[C@H](C)C[C@@H]2OC` [TACROLIMUS ANHYDROUS] registered a clearance of 0.7 mL/min/kg. Moreover, the CL renal in the data set “clinical” was 0.01 mL/min/kg.
As to `CO[C@H]1/C=C/O[C@@]2(C)Oc3c(C)c(O)c4c(O)c(c(/C=N/N5CCN(C)CC5)c(O)c4c3C2=O)NC(=O)/C(C)=C\C=C\[C@H](C)[C@H](O)[C@@H](C)[C@@H](O)[C@@H](C)[C@H](OC(C)=O)[C@@H]1C` [RIFAMPIN], the clearance in data set [1] was 1.5 mL/min/kg. The compound further returned a CL renal in “clinical” of 0.2 mL/min/kg.
In data set [1], `CCC1=C(C)CN(C(=O)NCCc2ccc(S(=O)(=O)NC(=O)N[C@H]3CC[C@H](C)CC3)cc2)C1=O` [GLIMEPIRIDE] came in with a clearance of 0.5 mL/min/kg.
`C#CCN(C)[C@H](C)Cc1ccccc1` [SELEGILINE] registered a clearance in data set [1] of 20 mL/min/kg. In the data set “clinical”, this compound yielded a CL renal of 0.2 mL/min/kg.
In the case of `N[C@@H](Cc1ccc(N(CCCl)CCCl)cc1)C(=O)O`, the clearance in data set [1] was found to be 7 mL/min/kg. The compound further displayed a CL renal in “clinical” of 0.91 mL/min/kg.
Taken in the same sequence, the figures for `CCN1CCCC1CNC(=O)c1cc(S(N)(=O)=O)ccc1OC` (stereo unspecified) [SULPIRIDE] were 1.83 mL/min/kg and 1.7 mL/min/kg.
For the compound `CCCCC/C=C\CCC(=O)N[C@H]1[C@H](Oc2c3cc4cc2Oc2ccc(cc2Cl)[C@@H](O[C@@H]2O[C@H](CO)[C@@H](O)[C@H](O)[C@H]2NC(C)=O)[C@@H]2NC(=O)[C@H](NC(=O)[C@@H]4NC(=O)[C@H]4NC(=O)[C@@H](Cc5ccc(c(Cl)c5)O3)NC(=O)[C@H](N)c3ccc(O)c(c3)Oc3cc(O)cc4c3)c3ccc(O)c(c3)-c3c(O[C@H]4O[C@H](CO)[C@@H](O)[C@H](O)[C@@H]4O)cc(O)cc3[C@@H](C(=O)O)NC2=O)O[C@H](CO)[C@@H](O)[C@@H]1O` [TEICOPLANIN A2-1], the clearance in data set [1] came out at 0.17 mL/min/kg. The compound also displayed a CL renal in “clinical” of 0.17 mL/min/kg.
In turn, `CC(C)NCC(O)c1ccc(NS(C)(=O)=O)cc1` (stereo unspecified) [SOTALOL] had a clearance in data set [1] of 2 mL/min/kg. Moreover, the CL renal in “clinical” came out at 1.7 mL/min/kg.
`N=C(N)NC(=O)Cc1c(Cl)cccc1Cl` [GUANFACINE] returned a clearance in data set [1] of 5.9 mL/min/kg. The CL renal in “clinical” was 3 mL/min/kg.
In turn, `CCS(=O)(=O)CCn1c([N+](=O)[O-])cnc1C` [TINIDAZOLE] registered a clearance in data set [1] of 0.6 mL/min/kg. The CL renal in “clinical” worked out at 0.11 mL/min/kg.
Compound `CNCCC=C1c2ccccc2CCc2ccccc21` [NORTRIPTYLINE] came in with a clearance in data set [1] of 10 mL/min/kg. Moreover, the CL renal in the data set “clinical” was 0.2 mL/min/kg.
`O=C1Nc2ccc(Cl)cc2C(c2ccccc2Cl)=NC1O` (stereo unspecified) [LORAZEPAM]: the clearance in data set [1] is 1 mL/min/kg. Further, in “clinical”, the CL renal stood at 0.01 mL/min/kg.
In the same order, the values of `C[C@@H]1O[C@@H]1P(=O)(O)O` [FOSFOMYCIN] are 2 mL/min/kg and 2 mL/min/kg.
Compound `CN(C)[C@@H]1C(O)=C(C(N)=O)C(=O)[C@@]2(O)C(O)=C3C(=O)c4c(O)cccc4[C@@](C)(O)[C@H]3[C@H](O)[C@@H]12` [OXYTETRACYCLINE] registered a clearance in data set [1] of 2 mL/min/kg. Also, in “clinical”, the CL renal worked out at 1.4 mL/min/kg.
Taken in the same sequence, the figures for `CN(C)CCc1c[nH]c2ccc(Cn3cncn3)cc12` [RIZATRIPTAN] were 19 mL/min/kg and 5.32 mL/min/kg.
In data set [1], `CN[C@@H]1[C@@H](O)[C@@H](O[C@@H]2[C@@H](O)[C@H](O[C@H]3OC(CN)=CC[C@H]3N)[C@@H](N)C[C@H]2N)OC[C@]1(C)O` [SISOMICIN] displayed a clearance of 1 mL/min/kg. In “clinical”, the CL renal turned out to be 0.76 mL/min/kg.
With `CCN1CCN(C(=O)N[C@@H](C(=O)N[C@@H]2C(=O)N3[C@@H]2SC(C)(C)[C@@H]3C(=O)O)c2ccccc2)C(=O)C1=O` [PIPERACILLIN], the clearance in data set [1] was 4 mL/min/kg. For the same compound, in “clinical”, the CL renal amounted to 3.2 mL/min/kg.
As to `CN1C(=O)C(O)N=C(c2ccccc2Cl)c2cc(Cl)ccc21` (stereo unspecified) [LORMETAZEPAM], the clearance in data set [1] came to 4 mL/min/kg.
As for `Cc1onc(-c2c(Cl)cccc2Cl)c1C(=O)N[C@@H]1C(=O)N2[C@@H]1SC(C)(C)[C@@H]2C(=O)O` [DICLOXACILLIN], the clearance in data set [1] came to 2 mL/min/kg. In addition, in the data set “clinical”, the CL renal was determined as 1.2 mL/min/kg.
Compound `C=CC1=C(C(=O)O)N2C(=O)[C@@H](NC(=O)/C(=N\OCC(=O)O)c3csc(N)n3)[C@H]2SC1` [CEFIXIME] registered a clearance in data set [1] of 1 mL/min/kg. The compound also displayed a CL renal in “clinical” of 0.42 mL/min/kg.
Taken in the same sequence, the figures for `CC(C)N(CCC(C(N)=O)(c1ccccc1)c1ccccn1)C(C)C` (stereo unspecified) [DISOPYRAMIDE] were 0.9 mL/min/kg and 0.5 mL/min/kg.
`CCC1=C[C@@H]2CN(C1)Cc1c([nH]c3ccccc13)[C@@](C(=O)OC)(c1cc3c(cc1OC)N(C)[C@H]1[C@@](O)(C(=O)OC)[C@H](OC(C)=O)[C@]4(CC)C=CCN5CC[C@]31[C@@H]54)C2` [VINORELBINE] displayed a clearance in data set [1] of 20 mL/min/kg. This compound also gave a CL renal in the data set “clinical” of 2.2 mL/min/kg.
For the compound `Clc1cccc(Cl)c1N=C1NCCN1` [CLONIDINE], the clearance in data set [1] was 4 mL/min/kg. The compound further gave a CL renal in the data set “clinical” of 2.48 mL/min/kg.
Taken in the same sequence, the figures for `CN1CCN2c3ncccc3Cc3ccccc3C2C1` (stereo unspecified) [MIRTAZAPINE] were 8 mL/min/kg and 0.32 mL/min/kg.
Regarding `Nc1nc(=O)[nH]cc1F` [FLUCYTOSINE], in data set [1], the clearance was 2 mL/min/kg. In addition, the CL renal in the data set “clinical” was 1.98 mL/min/kg.
In the same order, the values of `CCN1CCCC1CNC(=O)c1cc(S(=O)(=O)CC)c(N)cc1OC` (stereo unspecified) [AMISULPRIDE] are 7.8 mL/min/kg and 4.4 mL/min/kg.
The compound `CCO[C@@H](Cc1ccc(OCCc2ccc(OS(C)(=O)=O)cc2)cc1)C(=O)O` [TESAGLITAZAR] yielded a CL renal in “clinical” of 0.01 mL/min/kg.
The compound `CO/N=C(\C(=O)N[C@@H]1C(=O)N2C(C(=O)O)=C(CSc3nc(=O)c(=O)[nH]n3C)CS[C@H]12)c1csc(N)n1` [CEFTRIAXONE] gave a CL renal in “clinical” of 0.12 mL/min/kg.
Still for that read-out and setting: next, `CC(=O)O[C@@]12CO[C@@H]1C[C@H](O)[C@@]1(C)C(=O)[C@H](O)C3=C(C)[C@@H](OC(=O)[C@H](O)[C@@H](NC(=O)OC(C)(C)C)c4ccccc4)C[C@@](O)([C@@H](OC(=O)c4ccccc4)[C@H]21)C3(C)C.O.O.O` [DOCETAXEL]: 0.29 mL/min/kg; `Cc1ccc(-c2nc3ccc(C)cn3c2CC(=O)N(C)C)cc1` [ZOLPIDEM]: 0.04 mL/min/kg.
The same measure, in the same setting: next, `Cc1ncsc1CCCl` [CLOMETHIAZOLE]: 0.03 mL/min/kg; `CC[C@H](C)C(=O)O[C@H]1C[C@H](O)C=C2C=C[C@H](C)[C@H](CC[C@@H](O)C[C@@H](O)CC(=O)O)[C@H]21` [PRAVASTATIN]: 6.3 mL/min/kg; `COc1ccc2c(c1)c(CC(=O)O)c(C)n2C(=O)c1ccc(Cl)cc1` [INDOMETHACIN]: 0.2 mL/min/kg.
Still for that read-out and setting: the value for `CCOc1ccccc1OC(c1ccccc1)C1CNCCO1` (stereo unspecified) [REBOXETINE] was 0.04 mL/min/kg; that for `O=P1(NCCCl)OCCCN1CCCl` (stereo unspecified) [IFOSFAMIDE] was 0.58 mL/min/kg; that for `CNS(=O)(=O)CCc1ccc2[nH]cc(C3CCN(C)CC3)c2c1` was 3.1 mL/min/kg.
Turning to `CCCCCNC(=N)N/N=C/c1c[nH]c2ccc(OC)cc12` [TEGASEROD], in “clinical”, the CL renal is 0.36 mL/min/kg.
`CC(=O)N[C@H]1[C@H]([C@H](O)[C@H](O)CO)OC(C(=O)O)=C[C@@H]1N=C(N)N` [ZANAMIVIR] displayed a CL renal in the data set “clinical” of 1.39 mL/min/kg.
On the same count and under the same terms, the value for `Oc1ccc2c3c1O[C@H]1[C@@H](O)CC[C@@]4(O)[C@@H](C2)N(CC2CCC2)CC[C@]314` [NALBUPHINE] was 0.95 mL/min/kg; that for `CC(C)(C)NCC(O)COc1ccc(NC(=O)NC2CCCCC2)cc1` (stereo unspecified) [TALINOLOL] was 2.6 mL/min/kg; that for `COc1ccc(C(CN(C)C)C2(O)CCCCC2)cc1` (stereo unspecified) [VENLAFAXINE] was 0.64 mL/min/kg.
